The results in this text go back to paper PMC7504770, “Mechanistic Insights into the Chaperoning of Human Lysosomal-Galactosidase Activity: Highly Functionalized Aminocyclopentanes and C-5a-Substituted Derivatives of 4-epi-Isofagomine” (Molecules, 2020).

The target in this experiment is T1, β-galactosidase from bovine liver (GH35) (Bos taurus, UniProt Q58D55).
T1 construct: Bovine liver β-galactosidase; from tissue; host or cells: bovine liver
T1 sequence (Q58D55 28-653): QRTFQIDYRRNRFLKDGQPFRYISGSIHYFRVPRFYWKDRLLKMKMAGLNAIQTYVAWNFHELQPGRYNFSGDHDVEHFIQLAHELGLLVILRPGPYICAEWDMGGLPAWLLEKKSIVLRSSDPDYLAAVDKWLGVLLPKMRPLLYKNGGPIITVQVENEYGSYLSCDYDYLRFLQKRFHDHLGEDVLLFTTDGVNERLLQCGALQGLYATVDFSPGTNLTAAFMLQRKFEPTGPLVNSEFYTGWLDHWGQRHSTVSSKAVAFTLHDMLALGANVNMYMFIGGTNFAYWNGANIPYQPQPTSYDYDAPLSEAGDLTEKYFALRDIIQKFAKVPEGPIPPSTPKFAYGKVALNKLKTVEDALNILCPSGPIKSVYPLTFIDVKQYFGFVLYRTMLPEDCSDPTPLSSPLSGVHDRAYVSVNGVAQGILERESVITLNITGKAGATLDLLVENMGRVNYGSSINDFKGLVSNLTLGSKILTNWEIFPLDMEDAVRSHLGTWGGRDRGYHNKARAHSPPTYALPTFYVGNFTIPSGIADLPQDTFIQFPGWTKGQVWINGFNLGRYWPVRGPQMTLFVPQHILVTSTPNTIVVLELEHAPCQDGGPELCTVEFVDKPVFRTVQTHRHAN
Put plainly: Ki determination, bovine liver β-galactosidase. It counts as biochemical. Particulars: for Ki: 37 °C, pH 7, substrate pNP β-Gal; for fold weaker binding than 17, bovine liver β-galactosidase: compared with hydroxylated inhibitor 17. How it is done: Kinetic studies were performed at 37 °C in an appropriate buffer (specific conditions depicted below). In a typical assay, the enzyme was incubated with different inhibitor concentrations for up to 5 min before initiating the reaction by the addition of substrate. The initial reaction rate was measured by monitoring the increase in absorbance at 400 nm for up to ten minutes using a Cary4000 (Varian, Palo Alto, CA, USA). Ki determinations were performed using at least two different substrate concentrations. For each inhibitor, a range of four to six inhibitor concentrations bracketing the ultimately determined Ki value was used for each substrate concentration. Dixon plots (1/v vs. [I]) were constructed to validate the use of competitive inhibition model. The data were then fit using non-linear regression analysis with Grafit 7.0 [Erithacus Software, UK].
n.i. stands for no inhibition or weak inhibition with an estimated Ki value higher than 1 mM.
Bovine liver β-galactosidase: 50 mM sodium phosphate buffer (pH 7). Substrate: pNP β-Gal, Km = 0.65 mM.

`CCCCCCCCN[C@H]1[C@H](O)[C@@H](O)[C@@H](O)[C@H]1CO` [Compound 16]: the affinity corresponds to a Ki of 0.117 µM.

As for `CN(C)c1cccc2c(S(=O)(=O)NCCCCCCN[C@H]3C[C@@H](O)[C@@H](O)[C@H]3CO)cccc12` [Compound 31, (1R,2S,3R,4S)-3-Hydroxymethyl-4-(6′-dansylaminohexylamino)cyclopentane-1,2-diol], affinity was put at a Ki of 0.102 µM and the “fold weaker binding than 17, bovine liver β-galactosidase” value is reported as about 20 fold. Besides, the “binding energy difference to 17, bovine β-galactosidase” value (corresponding to the 20 fold Ki difference 31 vs 17) is given as about 2 kcal/mol.

With `CN(C)c1cccc2c(S(=O)(=O)NCCCCCC[C@H]3NC[C@@H](O)[C@@H](O)[C@H]3CO)cccc12` [Compound 22], affinity was put at a Ki of 0.0005 µM.

As for `CN(C)c1cccc2c(S(=O)(=O)NCCCCCCN[C@H]3[C@H](F)[C@@H](O)[C@@H](O)[C@H]3CO)cccc12` [Compound 37, (1S,2S,3S,4R,5R)-4-(6′-Dansylaminohexyl)amino-3-fluoro-5-hydroxymethylcyclopentane-1,2-diol], the Ki (as a rule, the dissociation constant of the complex between target and ligand, obtained from inhibition or displacement) was 0.137 µM; the “fold weaker binding than 17, bovine liver β-galactosidase” value is on record as “more than 12 fold”.
